Measurements as given in patent US10786475B2, “Method for preventing, treating, or improving fatty liver by administering effective amounts of azelaic acid to a subject” (Korea University Research and Business Foundation, priority 2018, dated 2020).

Assays:
PPARα [1] = assay: PPARα gene expression by qPCR in Hepa1c1c-7 cells; format: cell-based, mouse; conditions: 50 μM AzA, 2 hours, compared with control group
Experimental: To confirm the change in PPARα gene expression level by an AzA, Hepa1c1c-7 cells were seeded onto a 24-well plate at 5×10^5 cells/mL, cultured for 24 hours, and treated with 50 μM of AzA for 2 hours. Subsequently, RNA was extracted, and cDNA synthesis was performed from the extracted RNA using a ReverTra Ace® qPCR RT kit (TOYOBO, Osaka, Japan). More specifically, to increase PCR efficiency, the extracted RNA was treated at 65° C. for 5 minutes, and the resulting product was immediately stored on ice. Subsequently, a total of 8 μL of a reaction mixture was prepared with 2 μL of a 4×DNA Master Mix containing a gDNA remover, 0.5 μg of RNA and distilled water (nuclease-free water), and reacted at 37° C. for 5 minutes. Subsequently, a 5×RT Master mix was added to the reaction mixture, reacted at 37° C. for 5 minutes, at 50° C. for 5 minutes and at 98° C. for 5 minutes to synthesize cDNA. The cDNA synthesized by the above method was subjected to qPCR using a THUNDERBIRD SYBR qPCR Mix (TOYOBO) and an iQ5 iCycler system (Bio-Rad, California, USA) according to a method known to those of ordinary skill in the art. More particularly, amplification was performed with initial denaturation at 95° C. for 4.5 minutes, and 40 cycles of additional denaturation at the same temperature for 10 seconds, annealing and cooling at 55 to 60° C. for 30 seconds, and elongation at 68° C. for 20 seconds. […]

ob/ob mouse = assay: Fatty liver inhibitory effect in ob/ob mouse; format: in vivo; conditions: 60% high-fat diet, AzA 50 mg/kg oral, 6 weeks
Experimental: A 7-week-old male fatty liver model ob/ob mouse was purchased from Central Laboratory Animal Inc. to be used in an experiment. An AzA was orally administered at 50 mg/kg of body weight along with a 60% high-fat diet (HFD) for 6 weeks. As the experiment progresses, body weight was measured once a week, and food intake was measured […] on the last week. The concentration of triglycerides in liver tissue was measured by homogenizing liver tissue of a mouse in 600 μL of acetone (Daejung, Korea), storing the homogenate at 4° C. for 24 hours, and obtaining a fat part by centrifugation at 12000 rpm for 10 minutes. The fat part was dried, dissolved in 95% ethanol, quantified using a Cobas C11 autoanalyzer (Roche, Basel, Switzerland) and normalized with a liver weight. A fatty acid oxidation rate was measured and analyzed by the method of Example 4-4 described above.

3T3-L1 adipose cells = assay: MTT cytotoxicity assay in 3T3-L1 adipose cells; format: cell-based, mouse; conditions: 0 to 500 μM AzA, compared with control group
Experimental: The cytotoxicity test for 3T3-L1 adipose cells was performed by a tetrazolium-based colorimetric (MTT) method. The MTT assay is a method for evaluating cytotoxicity by measuring absorbance at a suitable wavelength (usually at 500 to 600 nm) based on a metabolic process, in which a dehydrogenase in mitochondria of intact cells reduces a yellow water-soluble tetrazolium salt [3-(4,5-dimethylthiazol-2-yl)-2-5-diphenyltetrazolium bromide] (MTT) into a water-insoluble dark violet MTT formazan crystal.

PPARα [2] = target: T1, PPARα (Mus musculus, UniProt P23204); assay: PPRE-luciferase assay in HEK293 cells; format: cell-based; conditions: HEK293 cells transfected with pSG5-PPAR alpha, various concentrations of AzA
T1 construct: host or cells: HEK293 cells (Korean Cell Line Bank)
T1 sequence (P23204 1-468): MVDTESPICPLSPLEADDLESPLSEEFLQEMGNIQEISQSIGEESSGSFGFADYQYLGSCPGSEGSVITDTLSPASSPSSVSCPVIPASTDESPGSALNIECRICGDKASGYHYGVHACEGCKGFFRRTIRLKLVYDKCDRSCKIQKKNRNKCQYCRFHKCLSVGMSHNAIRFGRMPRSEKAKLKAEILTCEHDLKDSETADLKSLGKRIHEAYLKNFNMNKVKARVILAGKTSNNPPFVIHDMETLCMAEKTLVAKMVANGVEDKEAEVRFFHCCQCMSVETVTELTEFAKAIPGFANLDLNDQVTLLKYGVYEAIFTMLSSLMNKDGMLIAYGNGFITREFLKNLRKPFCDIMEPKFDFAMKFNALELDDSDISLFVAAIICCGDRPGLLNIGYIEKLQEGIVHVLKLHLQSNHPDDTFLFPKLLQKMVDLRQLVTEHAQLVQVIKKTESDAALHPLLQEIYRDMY
Experimental: To measure PPRE-luciferase, HEK293 cells (Korean Cell Line Bank) seeded on a 24-well plate at […] cells/well were used. pSG5-PPAR alpha (Addgene, MA, USA) was co-transfected according to a given protocol using pCMV-3×PPRE-Luc, a Renilla expression vector and Lipofectamine 2000 (Invitrogen). After 24-hour post-transfection, the cells were treated with various concentrations of an AzA, and then analyzed using a dual luciferase assay kit (Promega, Fitchburg, Wis., USA) and Victor X2 (PerkinElmer, Santa Clara, Calif.). A luciferase fluorescent signal was standardized using Renilla.

Hepa1c1c-7 cells = assay: MTT cytotoxicity assay in Hepa1c1c-7 cells; format: cell-based, mouse; conditions: 0 to 500 μM AzA, 24 hours, compared with control group

With `O=C(O)CCCCCCCC(=O)O` [AzA, nonanedioic acid] the PPARα expression (PPARα [1]) was “significant increase”, the “expression of PPARα and a target gene thereof (Hmgcs2) in liver tissue” value (ob/ob mouse) was “significantly increased” and the “triglyceride concentration in liver tissue” value (ob/ob mouse) was “reduced”. For the same molecule, the body weight (ob/ob mouse; compared with control group) was “decreased”, the “cytotoxicity (MTT assay)” value (3T3-L1 adipose cells) was “toxicity was not exhibited at every concentration” and the “PPARα activity (PPRE-luciferase): direct ligand for PPARα” value (PPARα [2]) was “does not act as a direct ligand for PPARα”. The “cytotoxicity (MTT assay)” value (Hepa1c1c-7 cells) was “toxicity was not exhibited at every concentration”.
